Source: patent publication US20200308616A1, “PROCESS FOR PRODUCING HIGH PURITY STEVIOL GLYCOSIDES” (PureCircle Sdn Bhd, priority 2015, published 2020)
Read-outs that look alike come from different tables or passages of the source.

Legend:
microbial strains = assay: Indirect assay: growth with RebA as the only carbon source and RebA degradation by the soluble fraction of the cell extract; assay type: cell-based; conditions: defined mineral medium, 10 g/L RebA as only carbon source, 28° C., 72 h; 19 microbial strains
Experimental: Microbial strains were assayed for their ability to assimilate RebA from the culture medium by growing the strains in a defined mineral medium with RebA as the only carbon source.
This medium contained (per liter): 10 g RebA, 5 g (NH4)2SO4, 3 g KH2PO4, 0.5 g MgSO4×7H2O, 15 mg EDTA, 4.5 mg ZnSO4×7H2O, 0.3 mg CoCl2×6H2O, 1 mg MnCl2×4H2O, 0.3 mg CuSO4×5H2O, 4.5 mg CaCl2×2H2O, 3 mg FeSO4×7H2O, 0.4 mg NaMoO4×2H2O, 1 mg H3BO3, 0.1 mg KI, 0.05 mg biotin, 1 mg calcium pantothenate, 25 mg inositol, 1 mg thiamine HCl, 1 mg pyridoxine HCl, 0.2 mg para-aminobenzoic acid. A volume of 1 mL culture medium was inoculated with 10 μl of an overnight culture grown.
All cultivations were performed in 96 square well plates on a laboratory shaker with 300 rpm and 5.1 cm shaking diameter at 28° C. for 72 h. Growth was monitored by mixing 50 μL or culture volume with 50 μL ethanol in a 96 well plate and subsequently measuring the optical density at 600 nm (OD600) in a spectrophotometer (Molecular Devices). […]
Then, 70 μL of a 2 g/L RebA solution was added to the soluble fraction before incubation at 72 h at 28° C. RebA was detected by LC-MS set to single ion monitoring (SIM) mode, negative mode, m/z=965.60.
The difference in RebA concentration between the start and the end of the incubation was calculated for each soluble fraction. […]

[1] = test system: Kluyveromyces marxianus strain; assay: Direct assay: quantification of intracellular RebA by LC-MS; assay type: cell-based
Experimental: The selected microbial strain was cultivated in a defined mineral medium with RebA as the only carbon source. This medium contained (per liter): 9 g RebA, 5 g (NH4)2SO4, 3 g KH2PO4, 0.5 g MgSO4×7H2O, 15 mg EDTA, 4.5 mg ZnSO4×7H2O, 0.3 mg CoCl2×6H2O, 1 mg MnCl2×4H2O, 0.3 mg CuSO4×5H2O, 4.5 mg CaCl2×2H2O, 3 mg FeSO4×7H2O, 0.4 mg NaMoO4×2H2O, 1 mg H3BO3, 0.1 mg KI, 0.05 mg biotin, 1 mg calcium pantothenate, 25 mg inositol, 1 mg thiamine HCl, 1 mg pyridoxine HCl, 0.2 mg para-aminobenzoic acid. A volume of 20 mL culture medium was inoculated with a single colony. All cultivations were performed in 25 mL culture medium in a 300 mL non-baffled shake flask on a laboratory shaker with 250 rpm and 2.5 cm shaking diameter at 28° C. for 72 h. The complete culture was transferred to a beaker containing 125 mL of a solution containing 45 ppm 4-Nitrophenyl β-D-glucopyranoside in 60% methanol in water that was pre-cooled to −40° C. The mixture was then transferred to three 50 mL centrifugation tubes that were pre-cooled on dry ice and centrifuged below 0° C. at 4248 g for 10 min. Subsequently, an aliquot of the supernatant (quench) was stored at −80° C. and the rest of the supernatant was discarded, while the pellet was kept on dry ice. Then 5 mL 60% methanol in water pre-cooled on dry ice was used to re-suspend the 3 pellets. The re-suspended pellets were transferred to a single 15 mL centrifugation tube precooled on dry ice and centrifuged below 0° C. at 4248 g for 10 min. Then the supernatant was discarded and the pellet was re-suspended in fresh 5 mL 60% methanol in water pre-cooled on dry ice and the suspension was centrifuged below 0° C. at 4248 g for 10 min. Then the supernatant was discarded and the pellet was re-suspended again in fresh 5 mL 60% methanol in water pre-cooled on dry ice and the suspension was centrifuged below 0° C. at 4248 g for 10 min. […] The concentration of RebA in quench, wash, and cell extract was quantified by LC-MS (FIG. 2), in which the error bars indicate the standard error of mean from 2 parallel experiments.

gut microbiome = conditions: cited from earlier work

Row | SMILES | assimilation of RebA from the culture medium (microbial strains) | concentration of RebA in the cell extract versus quench and wash solutions ([1]; 9 g/L RebA as only carbon source, 72 h, LC-MS, FIG. 2, 2 parallel experiments) | concentration of RebA in the wash solution versus quench solution ([1]; LC-MS, FIG. 2) | intracellular accumulation of RebA ([1]; conclusion from cell extract versus quench and wash concentrations) | degradation by the gut microbiome (gut microbiome) | degradation by the gut microbiome (gut microbiome; Gardana et al., 2003)
1 | C=C1C[C@@]23CC[C@H]4[C@@](C)(CCC[C@@]4(C)C(=O)O[C@@H]4O[C@H](CO)[C@@H](O)[C@H](O)[C@H]4O)[C@@H]2CC[C@]1(O[C@@H]1O[C@H](CO)[C@@H](O)[C@H](O[C@@H]2O[C@H](CO)[C@@H](O)[C@H](O)[C@H]2O)[C@H]1O[C@@H]1O[C@H](CO)[C@@H](O)[C@H](O)[C@H]1O)C3 [RebA, Rebaudioside A] | found to assimilate RebA | exceeds that in the quench and wash solutions | higher than in the quench solution | accumulated intracellularly | glucose residues are cleaved off | –
2 | C=C1C[C@@]23CC[C@H]4[C@@](C)(CCC[C@@]4(C)C(=O)O)[C@@H]2CC[C@]1(O)C3 [steviol] | – | – | – | – | – | not metabolized further
